21 compounds from US20230338337A1, “BIOMARKERS FOR CANCER THERAPY USING MDM2 ANTAGONISTS” (OTSUKA PHARMACEUTICAL CO., LTD., priority 2019, published 2023) can be followed below.

Chain of MDM2-p53 interaction (in vitro translated MDM2) (Q00987 whole entry): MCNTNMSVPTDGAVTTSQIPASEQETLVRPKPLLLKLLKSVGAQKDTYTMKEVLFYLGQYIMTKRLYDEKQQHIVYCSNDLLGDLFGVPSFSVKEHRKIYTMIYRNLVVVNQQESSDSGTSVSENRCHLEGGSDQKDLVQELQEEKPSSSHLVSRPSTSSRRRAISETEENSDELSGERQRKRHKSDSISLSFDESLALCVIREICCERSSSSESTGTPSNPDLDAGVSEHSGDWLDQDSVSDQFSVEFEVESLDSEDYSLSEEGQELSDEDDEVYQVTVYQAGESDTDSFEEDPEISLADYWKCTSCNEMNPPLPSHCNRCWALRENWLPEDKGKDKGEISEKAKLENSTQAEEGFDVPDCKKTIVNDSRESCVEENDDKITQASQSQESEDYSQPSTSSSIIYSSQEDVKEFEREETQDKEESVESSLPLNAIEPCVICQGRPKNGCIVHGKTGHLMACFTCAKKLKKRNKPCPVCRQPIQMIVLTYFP

One assay deals with SJSA-1. As to the kind of experiment: Protocol B: CellTiter-Glo cell viability assay. Particulars: read-out: SJSA1 IC50 (μM) (Protocol B); Protocol B.
Consider “6-{[1-(4-chlorophenyl)-7-fluoro-5-[1-hydroxy-1-(1-methyl-1H-pyrazol-4-yl)ethyl]-3-oxo-1-[cis-3-hydroxycyclobutoxy]-2,3-dihydro-1H-isoindol-2-yl]methyl}pyridine-3-carbonitrile [Example 355]”, for which the IC50 is 4.7 µM.

Consider “1-({[(1R)-1-(4-chlorophenyl)-7-fluoro-2-[(5-fluoropyridin-2-yl)methyl]-5-[1-hydroxy-1-(1-methyl-1H-pyrazol-4-yl)ethyl]-3-oxo-2,3-dihydro-1H-isoindol-1-yl]oxy}methyl)cyclopropane-1-carboxamide [Example 209]”, for which the IC50 turned out to be 0.45 µM.

As for “2-{[(1R)-1-(4-chlorophenyl)-7-fluoro-5-[1-hydroxy-1-(1-methyl-1H-imidazol-4-yl)propyl]-3-oxo-1-{[trans-3-hydroxycyclobutyl]methoxy}-2,3-dihydro-1H-isoindol-2-yl]methyl}pyrimidine-5-carbonitrile [Example 484]”, the IC50 came to 4.9 µM.

Turning to `CCC(O)(c1cc(F)c2c(c1)C(=O)N(Cc1ncc(C#N)cn1)[C@@]2(O[C@H]1CCOC1)c1ccc(Cl)cc1)c1cn(C)cn1` (stereo partly drawn) [Example 369, 2-{[(1R)-1-(4-chlorophenyl)-7-fluoro-5-[1-hydroxy-1-(1-methyl-1H-imidazol-4-yl)propyl]-3-oxo-1-[(3S)-oxolan-3-yloxy]-2,3-dihydro-1H-isoindol-2-yl]methyl}pyrimidine-5-carbonitrile], the IC50 was 0.062 µM.

In the case of “(3R)-3-(4-chlorophenyl)-2-[(5-chloropyridin-2-yl)methyl]-4-fluoro-6-[1-hydroxy-1-(1-methyl-1H-pyrazol-4-yl)ethyl]-3-(2-hydroxyethoxy)-2,3-dihydro-1H-isoindol-1-one [Example 213]”, the IC50 is 0.25 µM.

In the case of “5-chloro-2-{[(1R)-1-(4-chlorophenyl)-7-fluoro-5-[(1R)-1-(4-fluorooxan-4-yl)-1-hydroxypropyl]-1-methoxy-3-oxo-2,3-dihydro-1H-isoindol-2-yl]methyl}pyridine-3-carboxylic acid (tris(hydroxymethyl)aminomethane salt) [Example 514]”, the IC50 amounted to 0.64 µM.

With “1-({[(1R)-1-(4-chlorophenyl)-2-[(5-chloropyrimidin-2-yl)methyl]-7-fluoro-5-[2-hydroxy-1-(piperazin-1-yl)butan-2-yl]-3-oxo-2,3-dihydro-1H-isoindol-1-yl]oxy}methyl)cyclopropane-1-carbonitrile [Example 537]”, the IC50 was 0.76 µM.

On to “1-({[(1R)-1-(4-chlorophenyl)-2-[(5-chloropyrimidin-2-yl)methyl]-7-fluoro-5-[1-hydroxy-1-(1-methyl-1H-pyrazol-4-yl)ethyl]-3-oxo-2,3-dihydro-1H-isoindol-1-yl]oxy}methyl)cyclopropane-1-carboxamide [Example 214]”, for which the IC50 turned out to be 0.22 µM.

As to “(3R)-3-(4-chlorophenyl)-2-[(5-chloropyrimidin-2-yl)methyl]-4-fluoro-6-{1-hydroxy-1-[trans-4-hydroxycyclohexyl}-3-[cis-3-hydroxycyclobutoxy]-2,3-dihydro-1H-isoindol-1-one: *fast eluting isomer [Example 496]”, the IC50 amounted to 1.8 µM.

On to “6-{[1-(4-chlorophenyl)-7-fluoro-5-[1-hydroxy-1-(1-methyl-1H-pyrazol-4-yl)ethyl]-3-oxo-1-[cis-3-hydroxycyclobutoxy]-2,3-dihydro-1H-isoindol-2-yl]methyl}pyridine-3-carbonitrile [Example 356]”, for which the IC50 came to 0.96 µM.

On to “(3R)-2-[(5-chloro-1-oxo-1λ^5-pyridin-2-yl)methyl]-3-(4-chlorophenyl)-4-fluoro-6-[1-hydroxy-1-(1-methyl-1H-pyrazol-4-yl)ethyl]-3-[(1-hydroxycyclopropyl)methoxy]-2,3-dihydro-1H-isoindol-1-one [Example 409]”, for which the IC50 turned out to be 0.41 µM.

Regarding `[2H]C([2H])([2H])C1(C([2H])([2H])O[C@]2(c3ccc(Cl)cc3)c3c(F)cc(C(O)(CC)c4cn(C)cn4)cc3C(=O)N2Cc2ccc(C#N)cn2)CC1` (stereo partly drawn) [Example 439, 6-{[(1R)-1-(4-chlorophenyl)-7-fluoro-1-({1-[hydroxy(^2H2)methyl]cyclopropyl}(^2H2)methoxy)-5-[1-hydroxy-1-(1-methyl-1H-imidazol-4-yl)propyl]-3-oxo-2,3-dihydro-1H-isoindol-2-yl]methyl}pyridine-3-carbonitrile], the IC50 was 0.03 µM.

On to “6-{[(1R)-1-(4-chlorophenyl)-1-[(1-cyanocyclopropyl)methoxy]-7-fluoro-5-[1-hydroxy-1-(1-methyl-1H-pyrazol-4-yl)ethyl]-3-oxo-2,3-dihydro-1H-isoindol-2-yl]methyl}pyridine-3-carbonitrile [Example 211]”, for which the IC50 stood at 0.36 µM.

The same assay, now with this note: read-out: SJSA1 IC50 (μM) (Protocol B); SJSA-1, CellTiter-Glo, 72 hrs.
As for “(3S)-3-(4-chlorophenyl)-3-[(1R)-1-(4-chlorophenyl)-5-(1-cyclobutyl-1-hydroxyethyl)-7-fluoro-1-methoxy-3-oxo-2,3-dihydro-1H-isoindol-2-yl]propanoic acid [Example 103]”, the IC50 worked out at 0.8 µM.

Turning to “4-{[(1R)-1-(4-chlorophenyl)-7-fluoro-5-[1-hydroxy-1-(1-methyl-1H-imidazol-4-yl)propyl]-3-oxo-1-[(3S)-oxolan-3-yloxy]-2,3-dihydro-1H-isoindol-2-yl]methyl}-3-(hydroxymethyl)benzonitrile [Example 92]”, the IC50 came out at 0.084 µM.

As for “1-({[(1R)-2-[(4-chloro-2-methanesulfonylphenyl)methyl]-1-(4-chlorophenyl)-7-fluoro-5-[1-hydroxy-1-(1-methyl-1H-pyrazol-4-yl)ethyl]-3-oxo-2,3-dihydro-1H-isoindol-1-yl]oxy}methyl)cyclopropane-1-carboxamide [Example 74]”, the IC50 came out at 1 µM.

For “(3S)-3-(4-chlorophenyl)-3-[(1R)-1-(4-chlorophenyl)-7-fluoro-5-[1-hydroxy-1-(oxan-4-yl)ethyl]-1-methoxy-3-oxo-2,3-dihydro-1H-isoindol-2-yl]propanoic acid [Example 88]”, the IC50 is 0.23 µM.

A further assay concerns the target MDM2-p53 interaction (in vitro translated MDM2) (Homo sapiens (Human), UniProt Q00987). Description: MDM2-p53 interaction 96-well plate binding assay (ELISA). Particulars: at 0.0010 μM. (In general: ELISA stands for enzyme-linked immunosorbent assay.)
With “1-({[(1R)-1-(4-chlorophenyl)-2-[(5-chloropyrimidin-2-yl)methyl]-7-fluoro-5-[2-hydroxy-1-(piperazin-1-yl)butan-2-yl]-3-oxo-2,3-dihydro-1H-isoindol-1-yl]oxy}methyl)cyclopropane-1-carbonitrile [Example 536]”, the “MDM2 % inhibition at 0.0010” value was found to be 64%@0.0010.

On to “1-({[(1R)-1-(4-chlorophenyl)-2-[(5-chloropyrimidin-2-yl)methyl]-7-fluoro-5-[1-(4-fluoropiperidin-4-yl)-1-hydroxypropyl]-3-oxo-2,3-dihydro-1H-isoindol-1-yl]oxy}methyl)cyclopropane-1-carbonitrile [Example 545]”, for which the “MDM2 % inhibition at 0.0010” value was 94%@0.0010.

The same assay, now with this note: at 0.030 μM.
For the compound “(3R)-3-(4-Chlorophenyl)-2-[(1R)-1-(5-chloropyridin-2-yl)-2,3-dihydroxypropyl]-4-fluoro-3-[(1-hydroxycyclopropyl)methoxy]-6-(2-hydroxypropan-2-yl)-2,3-dihydro-1H-isoindol-1-one [Example 331]”, the “MDM2 % at concentration” value turned out to be 49%@0.030.

Staying with this assay, now noted: at 0.10 μM.
Consider “2-{[(1R)-1-(4-chlorophenyl)-1-[(1-cyanocyclopropyl)methoxy]-7-fluoro-5-[1-hydroxy-1-(1-methyl-1H-imidazol-4-yl)propyl]-3-oxo-2,3-dihydro-1H-isoindol-2-yl]methyl}pyrimidine-5-carbonitrile [Example 463]”, for which the “MDM2 % inhibition at 0.10” value is recorded as 73%@0.10.

A word on the IC50: it is the concentration at which inhibition is half-maximal.
